The target in this test is Aldo-keto reductase family 1 member B1 (Rattus norvegicus, UniProt P07943). The test is described as follows: Inhibitory activity against purified rat lens aldose reductase (RLAR).

`O=C1NC(=O)C2(N1)c1ccccc1-c1ccccc12` yielded a concentration for half-maximal inhibition (IC50) of 3.5 µM.
As for `O=C(O)C=C1c2cc(F)ccc2-c2ccc(F)cc21`, half-maximal inhibition (IC50) was put at 16 µM.
For `O=C(O)Cn1c(=O)n(Cc2ccc(Br)cc2F)c(=O)c2ccc(Cl)cc21` [ZENARESTAT], half-maximal inhibition (IC50) was put at 0.0044 µM.
With `c1ccc2c(c1)-c1ccccc1C2Cc1nnn[nH]1` the figure was 1490 µM.
With `O=C(O)CC1c2ccccc2-c2ccc(F)cc21` (stereo not drawn) the figure was 0.85 µM.
The compound `O=C(O)Cc1nn(Cc2ccc(Br)cc2F)c(=O)c2ccccc12` [PONALRESTAT] returned an IC50 of 0.016 µM.
The compound `CC(C)c1cccc2c1OC(C(C)C)C(=S)N2CC(=O)O` (stereo not drawn) gave an IC50 of 0.13 µM.
The result for `O=C(O)C1CC12c1ccccc1-c1ccccc12` (stereo not drawn) reads 11.7 µM; that for `O=C(O)/C=C1\c2ccccc2-c2ccc(F)cc21`, 56 µM.
`c1ccc2c(c1)-c1ccccc1C2c1nnn[nH]1` gave an IC50 of 217 µM.
`O=C(O)CC1c2ccccc2-c2ccccc21` yielded an IC50 of 8.9 µM.
The result for `O=C(O)CC1c2cc(F)ccc2-c2ccc(F)cc21` reads 0.43 µM.
Compound `O=C(O)C1c2ccccc2-c2ccccc21` had an IC50 of 182 µM.

For orientation: IC50 means the concentration that inhibits the measured activity by half. A low value points to greater potency in that assay.

Values taken from ChEMBL document CHEMBL1127671, “Molecular modeling studies of aldose reductase inhibitors” (J Med Chem, 1994).
